Measurements: patent US10576069B2, “Treatment for chemotherapy-induced cognitive impairment” (Panacea Pharmaceutical Inc., priority 2013, dated 2020)

How the values were obtained:
[1] = tested on: human lung cancer cell line H460; experiment: LDH analysis (membrane integrity) of H460 cancer cells; assay type: cell-based; conditions: H460, 3 days
Experimental: (§1) Cancer Cell Culture. The mouse liver cancer cell line BNLT3 (gift of Dr. Jack Wands, Brown University) and the human lung cancer cell line H460 (ATCC) were seeded into 96-well plates at a density of 4,000 cells/well and cultured at 37° C., 5% CO2, in DMEM (11965, Gibco) supplemented with 10% fetal bovine serum, 20 mM HEPES, 1 mM sodium pyruvate, and […] gentamycin (all reagents came from Gibco).
(§2) Cell Insults and Treatments. Determination of concentration for each anticancer drug in our experiments was based on its reported concentration in human cerebral spinal fluid (CSF) in chemotherapy, literature report of its neurotoxicity in culture, and our preliminary in vitro experimental data. […] For ROS examination, the neurons were insulted with both 100 μM of MTX and 25 μM of 5-FU by 15 d.i.v. PAN-811.Cl.H2O was added to cultures to final concentrations of 1.25, 2.5, 5, and 10 μM at the same time as addition of the anticancer drugs.
(§3) Quantitative Assays and Morphological Assessment. Cell membrane integrity and mitochondrial function of either neurons or cancer cells were measured with LDH and 3-(4,5-dimethylthiazol-2-yl)-5-(3-carboxymethoxyphenyl)-2-(4-sulfophenyl)-2H-tetrazolium [MTS] analyses, respectively. The latter has been used to quantify cell survival. For the LDH assay, a mixture of a 35 μL aliquot of culture supernatant and 17.5 μL of Mixed Substrate, Enzyme and Dye Solutions (Sigma) was incubated at room temperature (RT) for 30 minutes. For the MTS assay, 10 μL of MTS reagent (Promega) was added to a culture well containing neurons in 50 μL of medium. The preparations were incubated at 37° C. for 2 hours. The preparations for both assays were then spectrophotometrically measured at 490 nm using a 96-well plate reader (Mode 550, Bio-Rad). Neuronal cell death was morphologically determined based on the integrity of the cell soma and continuity of neuronal processes. The change in number of cancer cells was judged directly by cell density. Cells were photographed under an inverted phase contrast microscope (IX 70, Olympus) using 10× or 20× objective.
Data Analysis. Data were generated from 4-6 replicate wells, expressed as mean±standard deviation (SD), and statistically evaluated at a significance level of […] with one factor ANOVA or Student's t-test by using software […] (http://vassarstats.net/) followed by the Tukey HSD test. Figure symbols are as follows: #, P<0.05, and ##, P<0.01, compared with control; *, P<0.05, and **, P<0.01, compared with the insulted group; §§, P<0.01, compared with PAN-811 treated group by Student's t-test.

[2] = tested on: mouse liver cancer cell line BNLT3; experiment: MTS analysis of BNLT3 cancer cells; assay type: cell-based; conditions: BNLT3, 3 days, 10 μM PAN-811 or both
Experimental: as §1, §2
as §3, with “The preparations were incubated at 37° C. for 2 hours.” left out, “The change in number of cancer cells was judged directly by cell density. Cells were photographed under an inverted phase contrast microscope (IX 70, Olympus) using 10× or 20× objective.” left out
Data Analysis. Data were generated from 4-6 replicate wells, expressed as mean±standard deviation (SD), and statistically evaluated at a significance level of 1% with one factor ANOVA or Student's t-test by using software […] […]

[3] = tested on: hydrogen peroxide-induced LDH release; conditions: PAN-811 at 10 μM; compared with untreated and H2O2-insulted group; cited from earlier work
[4] = tested on: MCAo infarct formation, brain edema, mortality; conditions: single i.v. bolus, 2 mg/kg, two-hour MCAo; cited from earlier work
[5] = tested on: human lung cancer cell line H460; experiment: MTS analysis of H460 cancer cells; assay type: cell-based; conditions: H460, 3 days; 3.5 μM CDDP, 10 μM PAN-811 or both; FIG. 5(d)
Experimental: as §1
Cell Insults and Treatments. Determination of concentration for each anticancer drug in our experiments was based on its reported concentration in human cerebral spinal fluid (CSF) in chemotherapy, literature report of its neurotoxicity in culture, and our preliminary in vitro experimental data. […]
(§4) Quantitative Assays and Morphological Assessment. Cell membrane integrity and mitochondrial function of either neurons or cancer cells were measured with LDH and 3-(4,5-dimethylthiazol-2-yl)-5-(3-carboxymethoxyphenyl)-2-(4-sulfophenyl)-2H-tetrazolium [MTS] analyses, respectively. The latter has been used to quantify cell survival. […] The preparations for both assays were then spectrophotometrically measured at 490 nm using a 96-well plate reader (Mode 550, Bio-Rad). Neuronal cell death was morphologically determined based on the integrity of the cell soma and continuity of neuronal processes. […]

[6] = tested on: mixed cortical and striatal neurons; experiment: LDH analysis (cell membrane leakage) of neurons insulted with anticancer drugs; assay type: cell-based; conditions: MTX 100 μM, 5-FU 25 μM, CDDP 3.5 μM
Experimental: Neuronal Cell Culture. Mixed cortical and striatal neurons from embryonic day 17 male Sprague-Dawley rats (tissue obtained from NIH) were seeded into poly-D-lysine coated 96-well plates at density of 50,000 cells/well and initially cultured at 37° C., 5% CO2, in neurobasal medium (NB) with B27 supplement (Invitrogen) containing full strength of AOs to obtain highly enriched (95%) neurons. Since AOs, including vitamin E, vitamin E acetate, superoxide dismutase (SOD), catalase (CAT), and GSH, are additives to culture medium, reduction of AO concentration in culture medium provides an approach to determine the level of OS involvement in a neurotoxic process. […]
as §4

[7] = 100 μM MTX or 10 μM PAN-811, FIG. 5(e)
[8] = 3.5 μM CDDP, 10 μM PAN-811 or both, FIG. 5(g)
[9] = 25 μM 5-FU, 10 μM PAN-811 or cotreatment, FIG. 5(f)

Structure (SMILES)	increase in LDH reading in the culture supernatant [1, 7]	reduction of MTS reading ([2]; 3.5 μM CDDP, FIG. 4(f))	reduction of MTS reading ([2]; 100 μM MTX, FIG. 4(d))	increase in LDH reading in the culture supernatant [1, 8]	increase in LDH reading in the culture supernatant [1, 9]	maximal protection against hydrogen peroxide-induced LDH release [3]	maximal protection (reduction of infarct volume) [4]	reduction of MTS reading [5]	LDH increase in culture supernatant (cell membrane leakage) ([6]; neurons in 25% AO, 3 days, FIG. 1(c))	increase in LDH reading ([6]; neurons, 12.5% AO condition, FIG. 2(b))
CN(Cc1cnc2nc(N)nc(N)c2n1)c1ccc(C(=O)N[C@@H](CCC(=O)O)C(=O)O)cc1 [MTX, methotrexate]	95%	–	–	–	–	–	–	–	–	–
NC(=S)N/N=C/c1ncccc1N [PAN-811, 3-aminopyridine-2-carboxaldehyde thiosemicarbazone]	31%	94%	the same level as MTX	30%	30%	90%	50%	–	–	–
N.N.[Cl][Pt][Cl] [CDDP]	–	44%	–	71%	–	–	–	22%	significant LDH increase	significant increases in LDH reading
O=c1[nH]cc(F)c(=O)[nH]1 [5-FU, 5-fluorouracil]	–	–	–	–	124%	–	–	–	–	–
